Measurements as given in patent US8912123B2, “Safened herbicidal compositions including 4-amino-3-chloro-5-fluoro-6-(4-chloro-2-fluoro-3-methoxyphenyl)pyridine-2-carboxylic acid or a derivative thereof and methods for their use” (Dow AgroSciences, LLC., priority 2012, dated 2014).

Tested on: winter barley (Hordeum vulgare, HORVW)
Assay: Post-emergence field trial, visual crop injury (ear deformation) in winter barley
Assay type: in vivo
Conditions: for Observed Visual Injury - Ear Deformation (%) 227 DAA HORVW: no safener, 1 L/ha Agnique BL3095, post-emergence field, scale 0-100
Protocol: A post-emergence field trial was conducted under field conditions in Helbigsdorf, Germany. Trial site was located in commercially grown fields of winter barley (Hordeum vulgare, HORVW) using standard herbicide small plot research methodology. Postemergence trial plot was 2.5 meter (m)×5 m (width×length) with 3 replicates per treatment. The crop was grown using normal cultural practices for fertilization, seeding, and maintenance to ensure good growth of the crop and the weeds. Trial treatments included spray formulations containing 4-amino-3-chloro-5-fluoro-6-(4-chloro-2-fluoro-3-methoxy-phenyl)pyridine-2-carboxylic acid (Compound A) at various rates and optionally including cloquintocet mexyl. All treatments in the post-emergence field trials were applied using a bicycle sprayer compressed air/gas sprayer with flat fan nozzles (90°) calibrated to apply 200 L/ha spray volume at approximately 250 kPa nozzle pressure. The spray formulations for Trials 1-4 listed in Table 1 included Dow AgroSciences testing formulation Compound A (listed in acid equivalent per hectare (g ae/ha)), Agnique BL3095 (Cognis, France; listed as liters of product per hectare (L pr/ha)), and optionally cloquintocet mexyl (listed as grams of active ingredient per hectare (g ai/ha)). The spray solutions were mixed in water at the levels indicated in Table 1 to achieve the desired rates based on a unit area of application (hectare). Data for observed visual injury is provided for 227 days after application (DAA) in Table 1. Visual crop injury (ear deformation) was scored on a scale of 0 to 100 percent where 0 corresponds to no injury and 100 correspond to damage at all plants. All treatment results, both for the single product and mixture, are with 4 replicates. The trial sites had naturally occurring populations of weeds. The weed spectrum included loose silky-bent ([…]).

| Compound | Observed Visual Injury - Ear Deformation (%) 227 DAA HORVW (Compound A 10 g ae/ha) | Observed Visual Injury - Ear Deformation (%) 227 DAA HORVW (Compound A 20 g ae/ha) | Observed Visual Injury - Ear Deformation (%) 227 DAA HORVW (Compound A 30 g ae/ha) | Safening of the compound of formula I in winter barley (conclusion from Table 1, winter barley) |
| --- | --- | --- | --- | --- |
| COc1c(Cl)ccc(-c2nc(C(=O)O)c(Cl)c(N)c2F)c1F [Compound A, 4-amino-3-chloro-5-fluoro-6-(4-chloro-2-fluoro-3-methoxy-phenyl)pyridine-2-carboxylic acid] | 27% | 30% | 30% |  |
| CCCCCC(C)OC(=O)COc1ccc(Cl)c2cccnc12 (stereo not shown) [cloquintocet-mexyl, reference compound] |  |  |  | safened |
